From paper PMC12226733, “Evolution of iGluR ligand specificity, polyamine regulation, and ion selectivity inferred from a placozoan epsilon receptor” (Communications Biology, 2025)
Read-outs that look alike come from different tables or passages of the source.

System: GluE1αA S642Q plus D646A
Assay type: cell-based, Trichoplax adhaerens
Settings: […]; for normalized conductance (G-V, Figure 5g), Avg: Na vs Na; for I-V current, Na vs Na, Avg of recordings: Figure 5b

For `[Na+]` [Na], the “normalized conductance (G-V, Figure 5g), Avg” value (from here on “normalized conductance”) (Vm 0.00) was 0.77, the “normalized conductance” value (Vm 20.00) was 0.75 and the “normalized conductance” value (Vm 40.00) was 0.71. The “normalized conductance” value (Vm 60.00) was 0.70, the “normalized conductance” value (Vm 80.00) was 0.74 and the “normalized conductance” value (Vm -20.00) was 0.79. For the same compound, the “normalized conductance” value (Vm -40.00) was 0.87, the “normalized conductance” value (Vm -60.00) was 0.95 and the “normalized conductance” value (Vm -80.00) was 1.00. For the same compound, the “I-V current, Na vs Na, Avg of recordings” value (Vm 0.00) was -0.02, the “I-V current, Na vs Na, Avg of recordings” value (Vm 20.00) was 0.15 and the “I-V current, Na vs Na, Avg of recordings” value (Vm 40.00) was 0.31. The “I-V current, Na vs Na, Avg of recordings” value (Vm 60.00) was 0.47, the “I-V current, Na vs Na, Avg of recordings” value (Vm 80.00) was 0.63 and the “I-V current, Na vs Na, Avg of recordings” value (Vm -20.00) was -0.18. The “I-V current, Na vs Na, Avg of recordings” value (Vm -40.00) was -0.37, the “I-V current, Na vs Na, Avg of recordings” value (Vm -60.00) was -0.57 and the “I-V current, Na vs Na, Avg of recordings” value (Vm -80.00) was -0.76.
